Bridge positions count the residues as written; N and C are the ends. Square brackets hold non-standard residues; d marks the D form. Peptide text beside a SMILES is read from it. * marks the point of attachment. ξ: configuration not given here. Phe(4-CONH2) = NC(=O)c1ccc(C[C@H](N)C(=O)O)cc1; Phe(4-COOH) = N[C@@H](Cc1ccc(C(=O)O)cc1)C(=O)O; Asp(3,3-Me2) = CC(C)(C(=O)O)[C@H](N)C(=O)O; Bip = N[C@@H](Cc1ccc(-c2ccccc2)cc1)C(=O)O; Phe(3-Me) = Cc1cccc(C[C@H](N)C(=O)O)c1; Val(3-OH) = CC(C)(O)[C@H](N)C(=O)O; NMeF = CN[C@@H](Cc1ccccc1)C(=O)O; hPhe = N[C@@H](CCc1ccccc1)C(=O)O; 3Pal = N[C@@H](Cc1cccnc1)C(=O)O; 4Pal = N[C@@H](Cc1ccncc1)C(=O)O; Cha = N[C@@H](CC1CCCCC1)C(=O)O; dNMeNle = CCCC[C@@H](NC)C(=O)O; ξ4Pal = NC(Cc1ccncc1)C(=O)O; Carboxymethyl = O=C(O)C*; NMeA = CN[C@@H](C)C(=O)O; Dab = NCC[C@H](N)C(=O)O; Dap = NC[C@H](N)C(=O)O; Ac3c = NC1(C(=O)O)CC1; Piv = CC(C)(C)C(=O)*
Target: T1, PE-labeled human PD-L1-Ig binding to Jurkat cell line over-expressing human PD-1 (Jurkat-PD-1) (Homo sapiens, UniProt Q15116)
T1 construct: expressed in transfected cells; host or cells: Jurkat
T1 sequence (Q15116 25-288): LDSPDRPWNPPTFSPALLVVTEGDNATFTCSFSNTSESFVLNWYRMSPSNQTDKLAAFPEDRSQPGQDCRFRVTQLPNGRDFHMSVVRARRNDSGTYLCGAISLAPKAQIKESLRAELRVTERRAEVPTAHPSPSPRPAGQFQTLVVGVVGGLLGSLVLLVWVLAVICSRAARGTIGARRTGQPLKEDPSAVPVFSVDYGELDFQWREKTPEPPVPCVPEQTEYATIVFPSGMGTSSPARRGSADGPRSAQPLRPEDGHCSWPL
Assay: Jurkat-PD-1 Cell Binding High-Content Screening Assay (CBA): Method 1
Details: Jurkat-hPD-1 cells, PE-labeled PD-L1-Ig 20 nM final; read-out: Jurkat HPDL1 PD1 IC50 (uM) (Method 1)

Row | Compound | IC50
1 | Cc1cccc(C[C@@H]2NC(=O)[C@H](CC(=O)O)NC(=O)[C@H](Cc3ccc(OCC(=O)O)cc3)NC(=O)[C@H](CCN)NC(=O)CSC[C@@H](C(=O)N[C@@H](CCN)C(N)=O)NC(=O)[C@H](CO)NC(=O)[C@H](C(C)(C)C(=O)O)NC(=O)[C@H](CC3CCCCC3)NC(=O)[C@H](CCN)NC(=O)[C@@H](CC(C)C)NC(=O)[C@H](C)N(C)C(=O)[C@H](Cc3ccc(OCC(=O)O)cc3)NC(=O)[C@H](Cc3ccc(-c4ccccc4)cc3)NC(=O)[C@H](Cc3ccc(OCC(=O)O)cc3)NC2=O)c1 [Compound 1848] ({CH2CO}-[Dab]Y(Carboxymethyl)D[Phe(3-Me)]Y(Carboxymethyl)[Bip]Y(Carboxymethyl)[NMeA][dL][Dab][Cha][Asp(3,3-Me2)]SC[Dab]-NH2; thioether N-14) | 0.06 µM
2 | CCNC(=O)[C@H](CCN)NC(=O)[C@@H]1CSCC(=O)N[C@@H](Cc2ccncc2)C(=O)N[C@@H](Cc2ccc(C(=O)O)cc2)C(=O)N[C@@H](CC(=O)O)C(=O)N[C@@H](Cc2c[nH]c3ccccc23)C(=O)N[C@@H](CC(C)C)C(=O)N[C@@H](Cc2ccc(-c3ccccc3)cc2)C(=O)N[C@@H]([C@@H](C)CC)C(=O)N(C)[C@@H](C)C(=O)N[C@H](CC(C)C)C(=O)N[C@@H](CCN)C(=O)N[C@@H](CC2CCCCC2)C(=O)N[C@@H](C(C)(C)O)C(=O)N[C@@H](CO)C(=O)N1 [Compound 1849] ({CH2CO}-[4Pal][Phe(4-COOH)]DWL[Bip]I[NMeA][dL][Dab][Cha][Val(3-OH)]SC[Dab]-NHEt; thioether N-14) | 0.01 µM
3 | CCNC(=O)[C@H](CCN)NC(=O)[C@@H]1CSCC(=O)N[C@@H](CCN)C(=O)N[C@@H](Cc2ccc(C(=O)O)cc2)C(=O)N[C@@H](CC(=O)O)C(=O)N[C@@H](Cc2c[nH]c3ccccc23)C(=O)N[C@@H](CC(C)C)C(=O)N[C@@H](Cc2ccc(-c3ccccc3)cc2)C(=O)N[C@@H]([C@@H](C)CC)C(=O)N(C)[C@@H](C)C(=O)N[C@H](CC(C)C)C(=O)N[C@@H](CCN)C(=O)N[C@@H](CC2CCCCC2)C(=O)N[C@@H](C(C)(C)O)C(=O)N[C@@H](CO)C(=O)N1 [Compound 1850] ({CH2CO}-[Dab][Phe(4-COOH)]DWL[Bip]I[NMeA][dL][Dab][Cha][Val(3-OH)]SC[Dab]-NHEt; thioether N-14) | 0.01 µM
4 | CCNC(=O)[C@H](CCN)NC(=O)[C@@H]1CSCC(=O)N[C@@H](CCc2ccccc2)C(=O)N[C@@H](Cc2ccc(OCC(=O)O)cc2)C(=O)N[C@@H](CC(=O)O)C(=O)N[C@@H](Cc2cccc(C)c2)C(=O)N[C@@H](Cc2ccc(OCC(=O)O)cc2)C(=O)N[C@@H](Cc2ccc(-c3ccccc3)cc2)C(=O)N[C@@H](Cc2ccc(OCC(=O)O)cc2)C(=O)N(C)[C@@H](C)C(=O)N[C@H](CC(C)C)C(=O)N[C@@H](CCN)C(=O)N[C@@H](CC2CCCCC2)C(=O)N[C@@H](C(C)C)C(=O)N[C@@H]([C@@H](C)O)C(=O)N1 [Compound 1855] ({CH2CO}-[hPhe]Y(Carboxymethyl)D[Phe(3-Me)]Y(Carboxymethyl)[Bip]Y(Carboxymethyl)[NMeA][dL][Dab][Cha]VTC[Dab]-NHEt; thioether N-14) | 0.01 µM
5 | CCNC(=O)[C@H](CCN)NC(=O)[C@@H]1CSCC(=O)N[C@@H](Cc2cccnc2)C(=O)N[C@@H](Cc2ccc(OCC(=O)O)cc2)C(=O)N[C@@H](CC(=O)O)C(=O)N[C@@H](Cc2cccc(C)c2)C(=O)N[C@@H](Cc2ccc(OCC(=O)O)cc2)C(=O)N[C@@H](Cc2ccc(-c3ccccc3)cc2)C(=O)N[C@@H](Cc2ccc(OCC(=O)O)cc2)C(=O)N(C)[C@@H](C)C(=O)N[C@H](CC(C)C)C(=O)N[C@@H](CCN)C(=O)N[C@@H](CC2CCCCC2)C(=O)N[C@@H](C(C)C)C(=O)N[C@@H]([C@@H](C)O)C(=O)N1 [Compound 1856] ({CH2CO}-[3Pal]Y(Carboxymethyl)D[Phe(3-Me)]Y(Carboxymethyl)[Bip]Y(Carboxymethyl)[NMeA][dL][Dab][Cha]VTC[Dab]-NHEt; thioether N-14) | 0.02 µM

The remaining lines, values ahead:

Row | IC50 | Compound
6 | 0.01 µM | CCNC(=O)[C@H](CCN)NC(=O)[C@@H]1CSCC(=O)N[C@@H](Cc2ccc(C(N)=O)cc2)C(=O)N[C@@H](Cc2ccc(OCC(=O)O)cc2)C(=O)N[C@@H](CC(=O)O)C(=O)N[C@@H](Cc2cccc(C)c2)C(=O)N[C@@H](Cc2ccc(OCC(=O)O)cc2)C(=O)N[C@@H](Cc2ccc(-c3ccccc3)cc2)C(=O)N[C@@H](Cc2ccc(OCC(=O)O)cc2)C(=O)N(C)[C@@H](C)C(=O)N[C@H](CC(C)C)C(=O)N[C@@H](CCN)C(=O)N[C@@H](CC2CCCCC2)C(=O)N[C@@H](C(C)C)C(=O)N[C@@H]([C@@H](C)O)C(=O)N1 [Compound 1857] ({CH2CO}-[Phe(4-CONH2)]Y(Carboxymethyl)D[Phe(3-Me)]Y(Carboxymethyl)[Bip]Y(Carboxymethyl)[NMeA][dL][Dab][Cha]VTC[Dab]-NHEt; thioether N-14)
7 | 0.01 µM | CCNC(=O)[C@H](CCN)NC(=O)[C@@H]1CSCC(=O)N[C@@H](Cc2ccncc2)C(=O)N[C@@H](Cc2ccc(OCC(=O)O)cc2)C(=O)N[C@@H](CC(=O)O)C(=O)N[C@@H](Cc2cccc(C)c2)C(=O)N[C@@H](Cc2ccc(OCC(=O)O)cc2)C(=O)N[C@@H](Cc2ccc(-c3ccccc3)cc2)C(=O)N[C@@H](Cc2ccc(OCC(=O)O)cc2)C(=O)N(C)[C@@H](C)C(=O)N[C@H](CC(C)C)C(=O)N[C@@H](CCN)C(=O)N[C@@H](CC2CCCCC2)C(=O)N[C@@H](C(C)C)C(=O)N[C@@H]([C@@H](C)O)C(=O)N1 [Compound 1858] ({CH2CO}-[4Pal]Y(Carboxymethyl)D[Phe(3-Me)]Y(Carboxymethyl)[Bip]Y(Carboxymethyl)[NMeA][dL][Dab][Cha]VTC[Dab]-NHEt; thioether N-14)
8 | 0.05 µM | CCCC[C@@H]1C(=O)N[C@@H](Cc2ccc(OCC(=O)O)cc2)C(=O)N[C@@H](CC(=O)O)C(=O)N[C@@H](Cc2cccc(C)c2)C(=O)N[C@@H](Cc2ccc(OCC(=O)O)cc2)C(=O)N[C@@H](Cc2ccc(-c3ccccc3)cc2)C(=O)N[C@@H](Cc2ccc(OCC(=O)O)cc2)C(=O)N(C)[C@@H](C)C(=O)N[C@H](CC(C)C)C(=O)N[C@@H](CCN)C(=O)N[C@@H](CC2CCCCC2)C(=O)N[C@@H](C(C)C)C(=O)N[C@@H](CO)C(=O)N[C@H](C(=O)N[C@@H](CCN)C(N)=O)CSCC(=O)N1C [Compound 1859] ({CH2CO}-[dNMeNle]Y(Carboxymethyl)D[Phe(3-Me)]Y(Carboxymethyl)[Bip]Y(Carboxymethyl)[NMeA][dL][Dab][Cha]VSC[Dab]-NH2; thioether N-14)
9 | 0.01 µM | Cc1cccc(C[C@@H]2NC(=O)[C@H](CC(=O)O)NC(=O)[C@H](Cc3ccc(OCC(=O)O)cc3)NC(=O)[C@H](Cc3ccncc3)NC(=O)CSC[C@@H](C(=O)N[C@@H](CCN)C(N)=O)NC(=O)[C@H](CO)NC(=O)[C@H](C(C)C)NC(=O)[C@H](CC3CCCCC3)NC(=O)[C@H](CCN)NC(=O)[C@@H](CC(C)C)NC(=O)[C@H](C)N(C)C(=O)[C@H](Cc3ccc(OCC(=O)O)cc3)NC(=O)[C@H](Cc3ccc(-c4ccccc4)cc3)NC(=O)[C@H](Cc3ccc(OCC(=O)O)cc3)NC2=O)c1 [Compound 1860] ({CH2CO}-[4Pal]Y(Carboxymethyl)D[Phe(3-Me)]Y(Carboxymethyl)[Bip]Y(Carboxymethyl)[NMeA][dL][Dab][Cha]VSC[Dab]-NH2; thioether N-14)
10 | 0.1 µM | Cc1cccc(C[C@@H]2NC(=O)[C@H](CC(=O)O)NC(=O)[C@H](Cc3ccc(OCC(=O)O)cc3)NC(=O)[C@H](Cc3ccccc3)N(C)C(=O)CSC[C@@H](C(=O)N[C@@H](CCN)C(N)=O)NC(=O)[C@H](CO)NC(=O)[C@H](C(C)C)NC(=O)[C@H](CC3CCCCC3)NC(=O)[C@H](CCN)NC(=O)[C@@H](CC(C)C)NC(=O)[C@H](C)N(C)C(=O)[C@H](Cc3ccc(OCC(=O)O)cc3)NC(=O)[C@H](Cc3ccc(-c4ccccc4)cc3)NC(=O)[C@H](Cc3ccc(OCC(=O)O)cc3)NC2=O)c1 [Compound 1861] ({CH2CO}-[NMeF]Y(Carboxymethyl)D[Phe(3-Me)]Y(Carboxymethyl)[Bip]Y(Carboxymethyl)[NMeA][dL][Dab][Cha]VSC[Dab]-NH2; thioether N-14)
11 | 0.04 µM | Cc1cccc(C[C@@H]2NC(=O)[C@H](CC(=O)O)NC(=O)[C@H](Cc3ccc(OCC(=O)O)cc3)NC(=O)[C@H]([C@@H](C)O)NC(=O)CSC[C@@H](C(=O)NC3(C(N)=O)CC3)NC(=O)[C@H](CO)NC(=O)[C@H](C(C)C)NC(=O)[C@H](CC3CCCCC3)NC(=O)[C@H](CCN)NC(=O)[C@@H](CC(C)C)NC(=O)[C@H](C)N(C)C(=O)[C@H](Cc3ccc(OCC(=O)O)cc3)NC(=O)[C@H](Cc3ccc(-c4ccccc4)cc3)NC(=O)[C@H](Cc3ccc(OCC(=O)O)cc3)NC2=O)c1 [Compound 1862] ({CH2CO}-TY(Carboxymethyl)D[Phe(3-Me)]Y(Carboxymethyl)[Bip]Y(Carboxymethyl)[NMeA][dL][Dab][Cha]VSC[Ac3c]-NH2; thioether N-14)
12 | 0.01 µM | Cc1cccc(C[C@@H]2NC(=O)[C@H](CC(=O)O)NC(=O)[C@H](Cc3ccc(OCC(=O)O)cc3)NC(=O)C(Cc3ccncc3)NC(=O)CSC[C@@H](C(=O)NC3(C(N)=O)CC3)NC(=O)[C@H](CO)NC(=O)[C@H](C(C)C)NC(=O)[C@H](CC3CCCCC3)NC(=O)[C@H](CCN)NC(=O)[C@@H](CC(C)C)NC(=O)[C@H](C)N(C)C(=O)[C@H](Cc3ccc(OCC(=O)O)cc3)NC(=O)[C@H](Cc3ccc(-c4ccccc4)cc3)NC(=O)[C@H](Cc3ccc(OCC(=O)O)cc3)NC2=O)c1 (stereo partly drawn) [Compound 1863] ({CH2CO}-[ξ4Pal]Y(Carboxymethyl)D[Phe(3-Me)]Y(Carboxymethyl)[Bip]Y(Carboxymethyl)[NMeA][dL][Dab][Cha]VSC[Ac3c]-NH2; thioether N-14)
13 | 0.04 µM | Cc1cccc(C[C@@H]2NC(=O)[C@H](CC(=O)O)NC(=O)[C@H](Cc3ccc(OCC(=O)O)cc3)NC(=O)[C@H](CN)NC(=O)CSC[C@@H](C(=O)N[C@@H](CCN)C(N)=O)NC(=O)[C@H]([C@@H](C)O)NC(=O)[C@H](C(C)C)NC(=O)[C@H](CC3CCCCC3)NC(=O)[C@H](CCNC(=O)C(C)(C)C)NC(=O)[C@@H](CC(C)C)NC(=O)[C@H](C)N(C)C(=O)[C@H](Cc3ccc(OCC(=O)O)cc3)NC(=O)[C@H](Cc3ccc(-c4ccccc4)cc3)NC(=O)[C@H](Cc3ccc(OCC(=O)O)cc3)NC2=O)c1 [Compound 1864] ({CH2CO}-[Dap]Y(Carboxymethyl)D[Phe(3-Me)]Y(Carboxymethyl)[Bip]Y(Carboxymethyl)[NMeA][dL][Dab](Piv)[Cha]VTC[Dab]-NH2; thioether N-14)

From US20240409585A1, “MACROCYCLIC IMMUNOMODULATORS” (priority 2021, published 2024)
